The first experiment concerns the target TAF1-BD2 (Homo sapiens, UniProt P21675). In words: TAF1-BD2 TR-FRET binding assay. The settings on record: Assay: TAF-1; biotinylated probe compound 1000, TR-FRET.
Sequence of CECR2 (Q9BXF3 424-538 limits assumed): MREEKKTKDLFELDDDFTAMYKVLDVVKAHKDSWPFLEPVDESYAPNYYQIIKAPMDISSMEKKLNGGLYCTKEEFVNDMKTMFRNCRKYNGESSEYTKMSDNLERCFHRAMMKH
Description: Specifically, in a 384 well ProxiPlate TAF1-BD2 (6 nM final) was combined with biotin-ligand (50 nM final) in 50 mM HEPES (pH 7.5), 50 mM NaCl, 1 mM TCEP, 0.01% (w/v) BSA, and 0.008% (w/v) Brij-35 either in the presence of DMSO (final 0.2% DMSO) or compound dilution series in DMSO. After 10 minutes incubation at room temperature, a mixture Eu-W1024 Anti-6×His antibody (Perkin Elmer AD0110) and SureLight™ Allophycocyanin-Streptavidin (APC-SA, Perkin Elmer CR130-100) were added to a final concentrations of 0.2 nMolar antibody and 25 nMolar APC-SA, respectively. After twenty minutes of equilibration, the plates were read on an Envision instrument and IC50s calculated using a four parameter non-linear curve fit.
Take `CNC(=O)c1cccc(-c2cn(C)c(=O)c3[nH]ccc23)c1` [Example 24, N-methyl-3-(6-methyl-7-oxo-1H-pyrrolo[2,3-c]pyridin-4-yl)benzamide]: the IC50 came out at 96 nM.

The molecule `Cn1cc(-c2ccc(C(=O)N3CCOCC3)cc2)c2cc[nH]c2c1=O` [Example 30, 6-methyl-4-[4-(morpholine-4-carbonyl)phenyl]-1H-pyrrolo[2,3-c]pyridin-7-one] gave a half-maximal inhibitory concentration (IC50) of 350 nM.

As for `Cn1cc(-c2ccc(C(=O)NCc3ccccc3)cc2)c2cc[nH]c2c1=O` [Example 37, N-benzyl-4-(6-methyl-7-oxo-1H-pyrrolo[2,3-c]pyridin-4-yl)benzamide], the IC50 is 63 nM.

In the case of `CN1CCC(c2cccc(-c3cn(C)c(=O)c4[nH]ccc34)c2)CC1` [Example 43, 6-methyl-4-[3-(1-methyl-4-piperidyl)phenyl]-1H-pyrrolo[2,3-c]pyridin-7-one], the concentration for half-maximal inhibition (IC50) worked out at 680 nM.

The molecule `CN1CCC(Cc2cccc(-c3cn(C)c(=O)c4[nH]ccc34)c2)CC1` [Example 46, 6-methyl-4-[3-[(1-methyl-4-piperidyl)methyl]phenyl]-1H-pyrrolo[2,3-c]pyridin-7-one] came in with an IC50 of 440 nM.

The target of a further experiment is BRD4(BD1) (Homo sapiens (Human), UniProt O60885). Put plainly: BRD4 AlphaLisa binding assay. Particulars: biotinylated H4-tetraacetyl peptide. The source says:
IC50 Measurements for Inhibitors Using BRD4 AlphaLisa Binding Assay
A general note: In Alpha technology, singlet oxygen from a donor bead excites a nearby acceptor bead.
With `Cn1cc(-c2ccc(C(=O)N3CCC(C(N)=O)CC3)cc2)c2cc[nH]c2c1=O` [Example 33, 1-[4-(6-methyl-7-oxo-1H-pyrrolo[2,3-c]pyridin-4-yl)benzoyl]piperidine-4-carboxamide], the IC50 worked out at 260 nM.

`Cn1cc(-c2ccc(C(=O)Nc3cccnc3)cc2)c2cc[nH]c2c1=O` [Example 34, 4-(6-methyl-7-oxo-1H-pyrrolo[2,3-c]pyridin-4-yl)-N-(3-pyridyl)benzamide] came in with an IC50 of 51 nM. This IC50 lies about 5.1-fold lower than the previous one.

Molecule `CN(C(=O)c1ccc(-c2cn(C)c(=O)c3[nH]ccc23)cc1)c1ccccc1` [Example 36, N-methyl-4-(6-methyl-7-oxo-1H-pyrrolo[2,3-c]pyridin-4-yl)-N-phenyl-benzamide] registered an IC50 of 340 nM.

On to `CN(CC#N)C(=O)c1ccc(-c2cn(C)c(=O)c3[nH]ccc23)cc1` [Example 38, N-(cyanomethyl)-N-methyl-4-(6-methyl-7-oxo-1H-pyrrolo[2,3-c]pyridin-4-yl)benzamide], for which the IC50 was 200 nM.

A further experiment addresses CECR2 (Homo sapiens (Human), UniProt Q9BXF3). Put plainly: CECR2 TR-FRET binding assay. Particulars: biotinylated probe compound 1001, TR-FRET. An excerpt: IC50 Measurements for Inhibitors Using CECR2 TR-FRET Binding Assay
His/Flag epitope tagged CECR2424-538 was cloned, expressed, and purified to homogeneity.
Background: In TR-FRET formats the signal depends on donor and acceptor labels being close together.
`COCCC(=O)Nc1ccc(-c2cn(C)c(=O)c3[nH]ccc23)cc1` [Example 7, 3-methoxy-N-[4-(6-methyl-7-oxo-1H-pyrrolo[2,3-c]pyridin-4-yl)phenyl]propanamide]: the 50% inhibitory concentration (IC50) came out at 170 nM.

Molecule `CC1Oc2cc(-c3cn(C)c(=O)c4[nH]ccc34)ccc2NC1=O` (stereo not shown) [Example 16, 2-methyl-7-(6-methyl-7-oxo-1H-pyrrolo[2,3-c]pyridin-4-yl)-4H-1,4-benzoxazin-3-one] showed a half-inhibitory concentration (IC50) of 36 nM. Compared with the last molecule, the IC50 is about 4.7-fold lower.

As to `CN(C)C(=O)c1ccc(-c2cn(C)c(=O)c3[nH]ccc23)cc1` [Example 18, N,N-dimethyl-4-(6-methyl-7-oxo-1H-pyrrolo[2,3-c]pyridin-4-yl)benzamide], the IC50 came to 730 nM. This IC50 lies about 20-fold higher than the previous one.

Turning to `CCn1cc(-c2cccc(C(=O)N(C)C)c2)c2cc[nH]c2c1=O` [Example 20, 3-(6-ethyl-7-oxo-1H-pyrrolo[2,3-c]pyridin-4-yl)-N,N-dimethyl-benzamide], the 50% inhibitory concentration (IC50) amounted to 1300 nM.

`CN1CCN(C(=O)c2ccc(-c3cn(C)c(=O)c4[nH]ccc34)cc2)CC1=O` [Example 26, 6-methyl-4-(4-(4-methyl-3-oxopiperazine-1-carbonyl)phenyl)-1H-pyrrolo[2,3-c]pyridin-7(6H)-one] showed an IC50 of 240 nM.

In the case of `Cn1cc(-c2ccc(C(=O)N3CC(F)(F)C3)cc2)c2cc[nH]c2c1=O` [Example 28, 4-[4-(3,3-difluoroazetidine-1-carbonyl)phenyl]-6-methyl-1H-pyrrolo[2,3-c]pyridin-7-one], the 50% inhibitory concentration (IC50) is 130 nM. Against the preceding molecule, the IC50 is about 1.8-fold lower.

For `Cn1cc(-c2ccc(C(=O)Nc3ccccc3)cc2)c2cc[nH]c2c1=O` [Example 35, 4-(6-methyl-7-oxo-1H-pyrrolo[2,3-c]pyridin-4-yl)-N-phenyl-benzamide], the IC50 was 75 nM.

Consider `CN1CCc2cc(-c3cn(C)c(=O)c4[nH]ccc34)ccc2C1` [Example 44, 6-methyl-4-(2-methyl-3,4-dihydro-1H-isoquinolin-6-yl)-1H-pyrrolo[2,3-c]pyridin-7-one], for which the IC50 came out at 54 nM.

Molecule `Cc1cc2c(-c3cccc(C(=O)N(C)C)c3)cn(C)c(=O)c2[nH]1` [Example 47, 3-(2,6-dimethyl-7-oxo-1H-pyrrolo[2,3-c]pyridin-4-yl)-N,N-dimethyl-benzamide] yielded a concentration for half-maximal inhibition (IC50) of 130 nM.

The next experiment deals with BRD9 (Homo sapiens (Human), UniProt Q9H8M2). In words: BRD9 AlphaLisa binding assay. The settings on record: biotinylated H4-tetraacetyl peptide. As to the method: After 20 minutes incubation at room temperature AlphaLisa Streptavidin Acceptor Beads (Perkin-A[…]) and AlphaLisa Nickel donor beads (Perkin AS 10 ID) were added to a final concentration of 15 ug/mL each.
Sequence of BRD9 (Q9H8M2 134-239 limits assumed): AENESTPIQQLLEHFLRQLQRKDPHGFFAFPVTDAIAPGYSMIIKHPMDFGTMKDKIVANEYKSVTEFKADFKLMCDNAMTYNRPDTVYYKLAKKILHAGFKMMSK
In turn, `COCCNC(=O)c1ccc(-c2cn(C)c(=O)c3[nH]ccc23)cc1` [Example 3, N-(2-methoxyethyl)-4-(6-methyl-7-oxo-1H-pyrrolo[2,3-c]pyridin-4-yl)benzamide] displayed an IC50 of 24 nM.

In turn, `Cn1cc(-c2ccc3c(c2)N(C(=O)OC(C)(C)C)CCC3)c2cc[nH]c2c1=O` [Example 5, tert-butyl 7-(6-methyl-7-oxo-1H-pyrrolo[2,3-c]pyridin-4-yl)-3,4-dihydro-2H-quinoline-1-carboxylate] returned a half-inhibitory concentration (IC50) of 130 nM.

`Cn1cc(-c2ccc(NC(=O)OC(C)(C)C)cc2)c2cc[nH]c2c1=O` [Example 6, tert-butyl N-[4-(6-methyl-7-oxo-1H-pyrrolo[2,3-c]pyridin-4-yl)phenyl]carbamate] displayed an IC50 of 85 nM. Against the preceding molecule, the IC50 is about 1.5-fold lower.

Turning to `CC1CNc2cc(-c3cn(C)c(=O)c4[nH]ccc34)ccc2NC1=O` (stereo not shown) [Example 11, 3-methyl-7-(6-methyl-7-oxo-1H-pyrrolo[2,3-c]pyridin-4-yl)-1,3,4,5-tetrahydro-1,5-benzodiazepin-2-one], the concentration for half-maximal inhibition (IC50) turned out to be 31 nM.

Turning to `Cn1cc(-c2ccc3c(c2)NCCC(=O)N3)c2cc[nH]c2c1=O` [Example 12, 7-(6-methyl-7-oxo-1H-pyrrolo[2,3-c]pyridin-4-yl)-1,3,4,5-tetrahydro-1,5-benzodiazepin-2-one], the IC50 came to 25 nM.

For the molecule `CCCn1cc(-c2cccc(C(=O)N(C)C)c2)c2cc[nH]c2c1=O` [Example 19, N,N-dimethyl-3-(7-oxo-6-propyl-1H-pyrrolo[2,3-c]pyridin-4-yl)benzamide], the IC50 is 238 nM. This IC50 lies about 9.5-fold higher than the previous one.

`Cn1cc(-c2ccc(C(C)(C)O)cc2)c2cc[nH]c2c1=O` [Example 39, 4-[4-(1-hydroxy-1-methyl-ethyl)phenyl]-6-methyl-1H-pyrrolo[2,3-c]pyridin-7-one] returned an IC50 of 21 nM. This IC50 lies about 11-fold lower than the previous one.

In the case of `CC(C)(O)c1ccc(-c2cn(C3CC3)c(=O)c3[nH]ccc23)cc1` [Example 41, 6-cyclopropyl-4-(4-(2-hydroxypropan-2-yl)phenyl)-1H-pyrrolo[2,3-c]pyridin-7(6H)-one], the concentration for half-maximal inhibition (IC50) stood at 110 nM. This IC50 lies about 5.2-fold higher than the previous one.

Molecule `CN1CCC(c2ccc(-c3cn(C)c(=O)c4[nH]ccc34)cc2)CC1` [Example 42, 6-methyl-4-[4-(1-methyl-4-piperidyl)phenyl]-1H-pyrrolo[2,3-c]pyridin-7-one] showed a 50% inhibitory concentration (IC50) of 53 nM.

`CN1CCC(Cc2ccc(-c3cn(C)c(=O)c4[nH]ccc34)cc2)CC1` [Example 45, 6-methyl-4-[4-[(1-methyl-4-piperidyl)methyl]phenyl]-1H-pyrrolo[2,3-c]pyridin-7-one] registered an IC50 of 64 nM.

Usually IC50 stands for the concentration that inhibits the measured activity by half.
